Measurements from patent US12351574B2, “Selective ligands for modulation of GIRK channels” (Northeastern University, priority 2018, dated 2025).
Values joined by “and” are separate entries in the source; they are usually repeats but may differ in a detail not shown here. Identical values can stand only once. “Also recorded” adds a separate entry of the source. Like-named read-outs stand apart in the source and are kept apart here.

Target: T1, GIRK1/2 (UniProt P48542+P48549)
T1 sequence (P48549 1-501): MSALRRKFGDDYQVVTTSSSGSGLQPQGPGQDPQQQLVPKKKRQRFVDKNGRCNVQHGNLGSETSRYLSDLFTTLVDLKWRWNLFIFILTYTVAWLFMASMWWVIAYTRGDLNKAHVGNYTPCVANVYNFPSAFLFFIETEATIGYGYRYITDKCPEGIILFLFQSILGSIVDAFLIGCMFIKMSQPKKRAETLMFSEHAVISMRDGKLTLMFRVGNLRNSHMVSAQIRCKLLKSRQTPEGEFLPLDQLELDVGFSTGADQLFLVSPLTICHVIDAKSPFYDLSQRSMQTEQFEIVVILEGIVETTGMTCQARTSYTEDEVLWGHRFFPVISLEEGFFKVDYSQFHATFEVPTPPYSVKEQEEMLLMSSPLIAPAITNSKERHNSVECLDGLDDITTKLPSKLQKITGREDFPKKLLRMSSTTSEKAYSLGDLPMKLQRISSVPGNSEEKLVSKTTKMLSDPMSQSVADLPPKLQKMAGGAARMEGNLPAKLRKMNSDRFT
T1 sequence (P48542 1-425): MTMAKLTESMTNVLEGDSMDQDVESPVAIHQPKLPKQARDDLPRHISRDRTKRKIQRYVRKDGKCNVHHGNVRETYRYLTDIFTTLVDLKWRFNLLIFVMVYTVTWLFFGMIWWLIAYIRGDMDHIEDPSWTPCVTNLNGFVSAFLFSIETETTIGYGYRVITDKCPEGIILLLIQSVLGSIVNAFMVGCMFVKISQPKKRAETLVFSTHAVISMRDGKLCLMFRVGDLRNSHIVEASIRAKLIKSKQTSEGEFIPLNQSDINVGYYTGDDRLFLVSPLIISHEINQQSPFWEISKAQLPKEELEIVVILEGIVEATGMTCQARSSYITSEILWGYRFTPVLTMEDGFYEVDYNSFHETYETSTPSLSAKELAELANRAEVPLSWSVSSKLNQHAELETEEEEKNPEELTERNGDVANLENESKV
Assay: two-electrode voltage clamp (TEVC) in Xenopus oocytes expressing GIRK1/2 wild-type
Type: cell-based, human GIRK1, mouse GIRK2
Set-up: expressed in transfected cells; host or cells: Xenopus laevis oocytes (cRNA injection)
Conditions: for selectivity for GIRK1/2 over GIRK1/4 (in words) / EC50: TEVC; for selectivity for GIRK1/2 over GIRK1/4 (in words): GIRK1/2 versus GIRK1/4; for EC50: Xenopus oocytes, GIRK1/2 wild-type; for EMAX at GIRK1/2: current normalized to basal current
Description: Molecular biology: For Xenopus oocyte expression, human GIRK1 and human GIRK4 cDNAs were subcloned into pGEMHE. For mammalian expression, human GIRK1 and human GIRK4 cDNAs were subcloned into pcDNA3 and pcDNA3.1/V5-His B, respectively (Invitrogen). Mouse GIRK2 cDNA was subcloned in the dual-function vector, pXoom. Point mutations were introduced using a standard Pfu-based mutagenesis technique according to the QuikChange protocol (Agilent). Mutations were verified by sequencing.
Xenopus laevis oocyte expression: Plasmid DNAs of GIRK channel subunits were linearized prior to in vitro transcription. Capped RNAs were transcribed using mMESSAGE mMACHINE T7 Transcription Kit (Thermo Fisher Scientific). Xenopus oocytes were surgically extracted, dissociated and defolliculated by collagenase treatment, and microinjected with 50 nl of a water solution containing 1 ng of each GIRK subunit RNA. For TEVC experiments, oocytes were kept 2 days at 17° C. before recording, while for NPo experiments oocytes were incubated for up to 4 days at 17° C.
Xenopus laevis oocyte expression: All cDNA constructs in the pGEMHE vector were linearized using the NheI restriction enzyme, whereas those in the pXoom vector were linearized using the XhoI restriction enzyme. Linearized cDNAs were in vitro-transcribed using the mMessage mMachine® kit (Ambion) kit. Complementary RNA (cRNA) concentrations were quantified by optical density. Xenopus oocytes were surgically extracted, dissociated, and defolliculated by collagenase treatment and microinjected with 50 nl of the desired cRNAs diluted in RNAase-free water. The use of Xenopus laevis frogs for this study was approved by the Institutional Animal Care and Use Committee (IACUC) at Northeastern University. All constructs used in this study were injected to achieve between 1-2 ng per oocyte depending on the channel. Oocytes were incubated for 2 days at 18° C.
Electrophysiology of oocytes: Whole-oocyte currents were measured by conventional two-electrode voltage clamp (TEVC) with a GeneClamp 500 amplifier (Axon Instruments). […] Barium-sensitive currents were normalized to average basal current in the vehicle solutions. The HK solution contained the following: 96 mM KCl, 1 mM NaCl, 1 mM MgCl2, 5 mM KOH/HEPES, pH 7.4. The barium solution consisted of HK+10 mM BaCl2. Five to ten oocytes from the same batch (same frog) were recorded for each group, and the experiments were repeated in at least four batches. Data acquisition and analysis were carried out using pClamp9 (Molecular Devices) and OriginPro (Microcal) software.

[1] = ML297 considered 100%, read-out: EMAX at GIRK1/2, % relative to ML297

Structure (SMILES) | GAT1508-induced potassium current, GIRK1/2 (in words) (10 μM, 10 mM K+, holding potential −100 mV) | GAT1508-induced thallium current, GIRK1/2 (in words) (10 μM, 10 mM thallium, holding potential −100 mV) | Emax (GAT1508 at wild-type GIRK1/2 considered 100%, read-out: EMAX, % of the control GIRK1/2) [%] | Emax [1] [%] | selectivity for GIRK1/2 over GIRK1/4 (in words) | EC50 [nM] | EMAX at GIRK1/2 | potency/efficacy compared to GAT1508 (in words) (concentration-response, FIGS. 34A-34I) | compound-induced current normalized to the basal current, GIRK1+GIRK2 (10 μM, High Potassium (HK) solution, FIG. 31) | EMAX at GIRK1/2, % relative to ML297 (ML297 considered 100%) [%]
Cc1cc(NC(=O)Nc2ccc(Br)s2)n(-c2ccccc2)n1 [GAT1508, 1-(5-bromothiophen-2-yl)-3-(3-methyl-1-phenyl-1H-pyrazol-5-yl)urea] | significantly increased currents | induced current increases | 100 | 76 | most selective GIRK1/2 activators relative to GIRK1/4; also recorded: could induce the current increase only in the brain channel | 370 ± 110 | 2.42±0.07 and 2.36±0.23 | – | – | –
Cc1cc(NC(=O)Nc2ccc(C)s2)n(-c2ccccc2)n1 [GAT1521, 1-(3-methyl-1-phenyl-1H-pyrazol-5-yl)-3-(5-methylthiophen-2-yl)urea] | – | – | – | 73 | most selective GIRK1/2 activators relative to GIRK1/4; also recorded: retained the specificity for brain over cardiac currents; also recorded: could induce the current increase only in the brain channel | 1220 ± 80 | 2.36±0.06 | lower potency than GAT1508 | – | –
Cc1cc(NC(=O)Nc2ccc(F)c(F)c2)n(-c2ccccc2)n1 [ML297, reference compound] | – | – | – | – | stimulated both brain and cardiac heteromeric channels | 340 ± 120 | 2.87±0.11 | – | ~2.5 | 100
